# Measurements as given in patent publication US20080221097A1, “Imidazopyridine Derivatives as Cannabinoid Receptor Ligands” (priority 2005, published 2008).
# Where a name gives a salt, the structure may show the parent alone.
# Target: T1, human cannabinoid CB2 receptor (Homo sapiens, UniProt P34972)
# T1 construct: expressed in transfected cells; host or cells: Saccharomyces cerevisiae strain MMY23 (cassette integrated at the ura3 locus, GPD promoter)
# Assay: Cannabinoid CB2 receptor agonist activity, yeast assay
# Type: cell-based
# Conditions: relative to HU210; averages of a number of experiments; read-out: efficacy (Emax) at the cloned human cannabinoid CB2 receptor
# Protocol: The cannabinoid CB2 receptor agonist activity of compounds of formula (I) was determined in accordance with the following experimental method.
# Yeast (Saccharomyces cerevisiae) cells expressing the human cannabinoid CB2 receptor were generated by integration of an expression cassette into the ura3 chromosomal locus of yeast strain MMY23. This cassette consisted of DNA sequence encoding the human CB2 receptor flanked by the yeast GPD promoter to the 5′ end of CB2 and a yeast transcriptional terminator sequence to the 3′ end of CB2. MMY23 expresses a yeast/mammalian chimeric G-protein alpha subunit in which the C-terminal 5 amino acids of Gpa1 are replaced with the C-terminal 5 amino acids of human Gαi½ (as described in Brown et al. (2000), Yeast 16:11-22). Cells were grown at 30° C. in liquid Synthetic Complete (SC) yeast media (Guthrie and Fink (1991), Methods in Enzymology, Vol. 194) lacking uracil, tryptophan, adenine and leucine to late logarithmic phase (approximately 6 OD600/ml).
# Agonists were prepared as […] solutions in DMSO. EC50 values (the concentration required to produce 50% maximal response) were estimated using 4 fold dilutions (BiomekFX, Beckman) into DMSO. Agonist solutions in DMSO (1% final assay volume) were transferred into black microtitre plates from Greiner (384-well). Cells were suspended at a density of 0.2 OD600/ml in SC media lacking histidine, uracil, tryptophan, adenine and leucine and supplemented with 10 mM 3-aminotriazole, 0.1M sodium phosphate pH 7.0, and 10 μM fluorescein di-β-D-glucopyranoside (FDGlu). This mixture (50 μl per well) was added to agonist in the assay plates (Multidrop 384, Labsystems). After incubation at 30° C. for 24 hours, fluorescence resulting from degradation of FDGlu to fluorescein due to exoglucanase, an endogenous yeast enzyme produced during agonist-stimulated cell growth, was determined using a fluorescence microtitre plate reader (Tecan Spectrofluor or LJL Analyst excitation wavelength: 485 nm; emission wavelength: 535 nm). Fluorescence was plotted against compound concentration and iteratively curve fitted using a four parameter fit to generate a concentration effect value. Efficacy (Emax) was calculated from the equation
# Emax=Max[compound X]−Min[compound X]/Max[HU210]−Min[HU210]×100%
# where Max[compound X] and Min[compound X] are the fitted maximum and minimum respectively from the concentration effect curve for compound X, and Max[HU210] and Min[HU210] are the fitted maximum and minimum respectively from the concentration effect curve for (6aR,10aR)-3-(1,1′-Dimethylheptyl)-6a,7,10,10a-tetrahydro-1-hydroxy-6,6-dimethyl-6H-dibenzo [b,d]pyran-9-methanol (HU210; available from Tocris). Equieffective molar ratio (EMR) values were calculated from the equation
# Where EC50[compound X] is the EC50 of compound X and EC50[HU210] is the EC50of HU210.
# T1 sequence (P34972 whole entry): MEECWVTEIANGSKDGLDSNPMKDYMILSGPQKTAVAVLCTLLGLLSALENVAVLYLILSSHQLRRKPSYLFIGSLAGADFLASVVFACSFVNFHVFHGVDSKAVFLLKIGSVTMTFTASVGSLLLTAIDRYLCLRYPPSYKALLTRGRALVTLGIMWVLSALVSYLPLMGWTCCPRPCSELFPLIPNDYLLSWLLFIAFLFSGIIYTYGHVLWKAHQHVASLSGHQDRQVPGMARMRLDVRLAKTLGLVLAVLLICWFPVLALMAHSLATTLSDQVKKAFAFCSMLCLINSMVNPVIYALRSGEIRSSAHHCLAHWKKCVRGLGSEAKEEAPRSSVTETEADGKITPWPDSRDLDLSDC
row,Structure (SMILES),Emax [%]
1,"Cn1cnc2c(Nc3ccc(Cl)cc3Cl)ncc(C(=O)N3CCCC3)c21 [Example 7, N-(2,4-Dichlorophenyl)-1-methyl-7-(1-pyrrolidinylcarbonyl)-1H-imidazo[4,5-c]pyridin-4-amine hydrochloride salt]",> 50
2,"Cn1cnc2c(Oc3cccc(Cl)c3)ncc(C(=O)N3CCCCC3)c21 [Example 13, 4-[(3-Chlorophenyl)oxy]-1-methyl-7-(1-piperidinylcarbonyl)-1H-imidazo[4,5-c]pyridine hydrochloride salt]",> 50
3,"Cc1c(Nc2ncc(C(=O)N3CCOCC3)c3c2ncn3C)cccc1C(F)(F)F [Example 20, 1-Methyl-N-[2-methyl-3-(trifluoromethyl)phenyl]-7-(4-morpholinylcarbonyl)-1H-imidazo[4,5-c]pyridin-4-amine hydrochloride salt]",> 50
4,"Cn1cnc2c(Nc3ccc(Cl)cc3Cl)ncc(C(=O)N3CCOCC3)c21 [Example 5, N-(2,4-Dichlorophenyl)-1-methyl-7-(4-morpholinylcarbonyl)-1H-imidazo[4,5-c]pyridin-4-amine hydrochloride salt]",> 50
5,"Cn1cnc2c(Nc3cccc(C(F)(F)F)c3F)ncc(C(=O)N3CCOCC3)c21 [Example 21, N-[2-Fluoro-3-(trifluoromethyl)phenyl]-1-methyl-7-(4-morpholinylcarbonyl)-1H-imidazo[4,5-c]pyridin-4-amine hydrochloride salt]",> 50
6,"Cn1cnc2c(Oc3cccc(Cl)c3)ncc(C(=O)N3CCOCC3)c21 [Example 14, 4-1(3-Chlorophenyl)oxy]-1-methyl-7-(4-morpholinylcarbonyl)-1H-imidazo[4,5-c]pyridine hydrochloride salt]",> 50

# The next lines start with the values.
row,Emax [%],Structure (SMILES)
1,> 50,"Cn1cnc2c(Nc3cccc(Br)c3)ncc(C(=O)N3CCCCC3)c21 [Example 1, N-(3-Bromophenyl)-1-methyl-7-(1-piperidinylcarbonyl)-1H-imidazo[4,5-c]pyridin-4-amine hydrochloride salt]"
2,> 50,"CC(C)CNC(=O)c1cnc(Nc2cccc(Br)c2)c2ncn(C)c12 [Example 4, 4-[(3-Bromophenyl)amino]-1-methyl-N-(2-methylpropyl)-1H-imidazo[4,5-c]pyridine-7-carboxamide hydrochloride salt]"
3,> 50,"Cn1cnc2c(Nc3cccc(Br)c3)ncc(C(=O)N3CCCC3)c21 [Example 3, N-(3-Bromophenyl)-1-methyl-7-(1-pyrrolidinylcarbonyl)-1H-imidazo[4,5-c]pyridin-4-amine hydrochloride salt]"
4,> 50,"Cn1cnc2c(Nc3ccc(F)c(Cl)c3)ncc(C(=O)N3CCOCC3)c21 [Example 22, N-(3-Chloro-4-fluorophenyl)-1-methyl-7-(4-morpholinylcarbonyl)-1H-imidazo[4,5-c]pyridin-4-amine hydrochloride salt]"
5,> 50,"Cn1cnc2c(Nc3cccc(OC(F)(F)F)c3)ncc(C(=O)N3CCOCC3)c21 [Example 17, 1-Methyl-7-(4-morpholinylcarbonyl)-N-{3-[(trifluoromethyl)oxy]phenyl}-1H-imidazo[4,5-c]pyridin-4-amine hydrochloride salt]"
6,> 50,"CC(C)CNC(=O)c1cnc(Nc2cccc(Cl)c2)c2ncn(C)c12 [Example 12, 4-[(3-Chlorophenyl)amino]-1-methyl-N-(2-methylpropyl)-1H-imidazo[4,5-c]pyridine-7-carboxamide hydrochloride salt]"
7,> 50,"Cn1cnc2c(Nc3cccc(F)c3)ncc(C(=O)N3CCOCC3)c21 [Example 18, N-(3-Fluorophenyl)-1-methyl-7-(4-morpholinylcarbonyl)-1H-imidazo[4,5-c]pyridin-4-amine hydrochloride salt]"
8,> 50,"Cn1cnc2c(Nc3cccc(Cl)c3)ncc(C(=O)N3CCCCC3)c21 [Example 10, N-(3-Chlorophenyl)-1-methyl-7-(1-piperidinylcarbonyl)-1H-imidazo[4,5-c]pyridin-4-amine hydrochloride salt]"
